The values below come from PubChem BioAssay (NCI).

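How tested: cells in 96-well plates exposed to compound for 48 hours at five concentrations. Here, GI50 denotes the concentration required for 50% inhibition of growth. The concentration for full growth arrest is given as TGI.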 Bounds are passed on as bounds.

Common to all, as to experiment: NCI-60 cell line screen, 48 h
In assay [1] the test system is SF-268 CNS.
The subject of assay [2] is KM12 colon.
In assay [3] the test system is UACC-257 melanoma.
In assay [4] the test system is NCI-H460 lung.
The test system of assay [5] is HCC-2998 colon.
Assay [6] concerns SNB-75 CNS.
Assay [7] relates to MOLT-4 leukemia.
For assay [8], the system named is EKVX NSCLC.
For assay [9], the system named is HOP-18 NSCLC.
Assay [10] concerns M19-MEL melanoma.

With `Cc1cc(N(CCC#N)CCC#N)ccc1/C(N=Nc1ccc([N+](=O)[O-])cc1)=N\NC(=O)c1ccccc1`, the TGI in [1], in assay [2], in [3], in assay [4], in assay [5] and in assay [6] was more than 100 µM each time. Further, the TGI in [7] and in assay [8] was more than 100 µM each time.

On to `COCOc1cc(OC)ccc1C/C(=N/O)C(=O)OC`, for which the TGI in [1] is more than 100 µM; in [2], more than 100 µM; in assay [3] it was more than 100 µM; in [4] it was more than 100 µM; in assay [5] it was more than 100 µM; in assay [6], 74.4 µM. Moreover, the TGI in [7] and in assay [8] was more than 100 µM each time.

Turning to `O=c1[nH]c(=O)n([C@@H]2O[C@H](CO)[C@@H](O)[C@@H]2F)cc1I`, the TGI in [1], in assay [2], in assay [3], in assay [4], in [5] and in assay [6] was more than 100 µM each time. Further, the TGI in assay [7] and in [8] was more than 100 µM in each case.

As to `CCOC(=O)/C=C(/C(=O)OCC)n1ccc(=O)n(Cc2cnnn2CCCCOC(C)=O)c1=O`, the TGI in assay [1], in assay [2], in assay [3], in [4], in assay [5] and in [6] was more than 100 µM in each case. The TGI in assay [7] and in assay [8] was more than 100 µM in each case.

On to `N#Cc1c(-c2ccc([N+](=O)[O-])cc2)cc(-c2ccc(Nc3ccnc4cc(Cl)ccc34)cc2)nc1N`, for which the TGI in assay [1] is 42.2 µM; in [2], 14.7 µM; in assay [3] it was 62.3 µM; in [4], more than 73.2 µM; in assay [5] it was 43.2 µM; in assay [6], 34.6 µM. Besides, the TGI in [7] is 5.4 µM; in assay [8], 38 µM.

As for `C[C@H]1O[C@@H](C(C)(C)C)OC(=O)[C@@H]1C(OC(=O)c1ccccc1)c1cccc2ccccc12` (stereo partly drawn), the TGI in assay [1], in [2], in assay [3], in assay [4], in assay [5] and in assay [6] was more than 100 µM throughout. Besides, the TGI in assay [7] and in [8] was more than 100 µM throughout.

As for `COc1cccc2cc(C(=O)NC34CC5CC(CC(C5)C3)C4)c(=N)oc12`, the TGI in [1], in [2], in [3], in [4], in assay [5] and in [6] was more than 100 µM throughout. Also, the figures for the TGI in assay [7] and in assay [8] were 23.2 µM and more than 100 µM, respectively.

On to `C=CC[C@]1(C2=NC(C)(C)CO2)c2ccccc2-c2ccccc2[C@H]1C(C)=O`, for which the TGI was found to be 29.3 µM in [1]; 38.6 µM in assay [2]; 24 µM in assay [3]; 19.3 µM in [4]; 20.7 µM in assay [5]; 46.2 µM in assay [6]. Moreover, the TGI is 50 µM in assay [7] and 40.6 µM in [8].

Take `[N-]=[N+]=Nc1ccc2c(c1)Sc1ccccc1N2CCCCN1CCN(C(=O)CCNC(=O)Cc2ccc(C(=O)c3ccccc3)cc2)CC1`: the TGI was 16 µM in [1]; 23 µM in assay [2]; 9.96 µM in [3]; more than 23.3 µM in [4]; 6.08 µM in assay [5]; more than 24.4 µM in assay [6]. The TGI in assay [7] is 5.86 µM; in [8], more than 100 µM.

With `CN(C)c1ccc(/C=C(\NC(=O)c2ccccc2)C(=O)NC(Cc2c[nH]c3ccccc23)C(=O)O)cc1` (stereo not drawn), the TGI in [1] was more than 100 µM; in [2], more than 100 µM; in [3], more than 100 µM; in assay [4] it was more than 100 µM; in assay [5] it was more than 100 µM; in assay [6], 33.1 µM. Further, the TGI in assay [7] and in [8] was more than 100 µM throughout.

For the compound `COc1cc(OC)c(OC)cc1/C=C/c1cc[n+](C)c2ccccc12`, the TGI was more than 100 µM in assay [1]; 75 µM in assay [2]; 50.9 µM in assay [3]; more than 100 µM in [4]; more than 100 µM in assay [5]; more than 100 µM in assay [6]. Besides, the TGI in assay [7] and in assay [8] was more than 100 µM each time.

For `O=C1NC(=Nc2ccccc2)C(=Nc2ccccc2)N1c1ccccc1`, the TGI worked out at 34 µM in assay [1]; 32.8 µM in assay [2]; 29.8 µM in assay [3]; 30.8 µM in [4]; 30.7 µM in [5]; 30.9 µM in assay [6]. Moreover, the TGI worked out at 72.8 µM in assay [7] and 31.5 µM in assay [8].

Take `Cc1cc(NS(=O)(=O)c2ccc(Nc3c4ccccc4nc4c(C(=O)NCCO)cccc34)cc2)no1`: the TGI in assay [1] was more than 100 µM; in assay [2], 62.7 µM; in [3], more than 100 µM; in assay [4] it was more than 100 µM; in [5], more than 100 µM; in assay [6], 53.9 µM. Besides, the TGI in assay [7] and in assay [8] was more than 100 µM throughout.

`O=[N+]([O-])C(C(Cl)=C(Cl)Cl)=C(n1cncn1)n1cncn1`: the TGI is 35.3 µM in [1]; more than 100 µM in [2]; more than 65.7 µM in [3]; more than 100 µM in [4]; 98.1 µM in [5]; more than 65.3 µM in [6]. Moreover, the TGI is more than 100 µM in assay [7] and 59.9 µM in assay [8].

In the case of `Cc1ccc(C(=O)N/N=C2/C(=O)c3c4ccccc4cc4cccc2c34)cc1`, the TGI in [1] is 88.2 µM; in assay [2], more than 84.3 µM; in assay [3] it was more than 100 µM; in assay [4], more than 77.2 µM; in assay [5], more than 100 µM; in assay [6] it was more than 81 µM. In addition, the TGI in [7] and in assay [8] was more than 100 µM throughout.

As to `O=C(C1OC1c1cccc([N+](=O)[O-])c1)C12CC3CC(CC(C3)C1)C2` (stereo not drawn), the TGI in [1] is 9.18 µM; in assay [2], 13.9 µM; in assay [3], 25.4 µM; in assay [4], 14.5 µM; in assay [5], 14.5 µM; in assay [6], 20 µM. In addition, the results for the TGI in assay [7] and in assay [8] were more than 22.8 µM and 27 µM, respectively.

For `CC(C)=C[C@@H]1O[C@H](O)[C@@H]([C@H]2CC[C@@]3(C)[C@@H]4CC[C@H]5C(C)(C)C(=O)CC[C@@]56C[C@@]46CC[C@]23C)[C@@H]1O`, the TGI came out at 39.4 µM in assay [1]; 34.9 µM in assay [2]; 31.6 µM in [3]; 35.9 µM in [4]; 33.3 µM in [5]; 32.5 µM in assay [6]. Also, the figures for the TGI in [7] and in assay [8] were 32.4 µM and 33 µM, respectively.

For the compound `Cc1cn(C2OC(CO)C(O)C2F)c(=O)[nH]c1=O` (stereo not drawn), the TGI in assay [1], in [2], in assay [3], in assay [4], in [5] and in assay [6] was more than 100 µM in each case. The TGI in [7] and in assay [8] was more than 100 µM throughout.

`COc1ccccc1C1C(C#N)=C(N)Oc2cc(O)ccc21` (stereo not drawn): the GI50 is 19.4 µM in [1]; 9.57 µM in assay [2]; 27.7 µM in [3]; 20 µM in assay [4]; 11.7 µM in assay [5]; 23 µM in assay [6]. Further, the figures for the GI50 in assay [7] and in [8] were 13.1 µM and 34.6 µM, respectively. Moreover, the TGI was 91 µM in assay [1]; more than 100 µM in assay [2]; 94.6 µM in [3]; 58.8 µM in assay [4]; 35.5 µM in assay [5]; 56.4 µM in assay [6]. The TGI in assay [7] is 45.4 µM; in [8], more than 100 µM.

Take `N#Cc1c(-c2ccccc2)cc(Nc2ccc(Cl)cc2)n2c1nc1ccccc12`: the TGI in assay [1] is more than 100 µM; in assay [2], more than 65.5 µM; in assay [3] it was more than 28.8 µM; in assay [4], more than 37.6 µM; in assay [5], more than 100 µM; in [6] it was more than 31.1 µM. Also, the TGI in [7] is 9.5 µM; in [8], more than 46.7 µM.

As to `C[n+]1cn(-c2nc3ccccc3nc2[N-]S(=O)(=O)c2ccccc2)c2ccccc21`, the TGI in [1], in assay [2], in [3], in assay [4], in assay [5] and in assay [6] was more than 100 µM throughout. In addition, the TGI in [7] and in [8] was more than 100 µM throughout.

Take `O=c1c2c3c(sc2nc2n1N=CN(c1ccc(F)cc1)C2)CCCC3`: the TGI in assay [1], in assay [2], in [3], in assay [4], in [5] and in [6] was more than 100 µM throughout. Besides, the TGI in assay [7] and in [8] was more than 100 µM in each case.

As to `Nc1c2cc3ccc2nc2ccc(cc12)OCCOCCOCCOCCOCCOCCO3`, the TGI in [1], in assay [2], in assay [3], in [4], in [5] and in assay [6] was more than 10 µM each time. In addition, the TGI in assay [7] and in assay [8] was more than 10 µM throughout.

Take `C=C(C)C(=O)OC1C[C@H](COC(C)=O)C2CC=C(CO)C2C2OC(=O)C(=C)[C@H]12` (stereo partly drawn): the TGI in assay [1] was 60.2 µM; in [2] it was more than 100 µM; in assay [3] it was more than 100 µM; in assay [4], more than 100 µM; in assay [5] it was more than 100 µM; in [6] it was more than 100 µM. The TGI in assay [7] is 45.7 µM; in assay [8] it was more than 100 µM.

As to `CCNC(=S)NNC(=O)CSc1nc2ccc(I)cc2c(=O)n1Cc1ccccc1`, the TGI in assay [1] was more than 100 µM; in assay [2], more than 100 µM; in assay [3] it was more than 87.1 µM; in assay [4], more than 100 µM; in assay [5] it was more than 85.7 µM; in assay [6], more than 100 µM. For the same compound, the TGI was more than 100 µM in [7] and more than 88 µM in [8].

For `C=CCn1c(=N)/c(=C(\N)O)s/c1=C1/SC(=S)N(c2ccc(C)cc2)C1=O`, the TGI in [9], in assay [10], in assay [1], in assay [2], in [3] and in assay [4] was more than 100 µM in each case. Also, the TGI is 44.6 µM in assay [6] and more than 100 µM in assay [7].

In the case of `CC(=O)n1nc(-c2ccc3ccccc3c2)nc1C`, the TGI in assay [1], in [2], in [3], in [4], in assay [5] and in assay [6] was more than 100 µM throughout. For the same compound, the TGI in assay [7] and in [8] was more than 100 µM throughout.

With `COc1ccc(/C=C/C(=O)Oc2ccccc2OC)cc1`, the TGI in assay [1] is 4.71 µM; in [2], 31.3 µM; in assay [3], more than 100 µM; in assay [4] it was more than 100 µM; in [5], 43.3 µM; in [6] it was more than 74.1 µM. The TGI was 3.44 µM in assay [7] and more than 100 µM in [8].

On to `CC(=O)NC1(C)C(C)C2CC1C(C)C2(C)C` (stereo not drawn), for which the TGI in assay [1], in assay [2], in assay [3], in assay [4], in assay [5] and in assay [6] was more than 100 µM in each case. In addition, the TGI in assay [7] and in assay [8] was more than 100 µM each time.

Consider `COc1ccc2c3c1OC1C(OC)(OC)CC4(C=C2)CN(C)CCC314` (stereo not drawn), for which the TGI in assay [1], in assay [2], in [3], in assay [4], in assay [5] and in assay [6] was more than 100 µM throughout. Moreover, the TGI in assay [7] and in assay [8] was more than 100 µM throughout.
